# “Also recorded” adds a separate entry of the source. Counter-ions that a name gives are not always drawn.
# Tests used:
# Type in all cases: in vivo
# [1] = test system: human melanoma cell line SEKI; experiment: Antitumor effect in human melanoma cell line SEKI transplantation model, nude mice
# Method: A human melanoma cell line SEKI (JCRB Cell Bank) was cultured by using RPMI1640 medium (Sigma-Aldrich Co. LLC) containing 10% FBS in a 5% CO2 incubator under conditions of 37° C. When the cells became an approximately 80% confluent state, the cells were recovered by using trypsin-EDTA. A suspension was prepared by adding Hank's balanced salt solution containing 50% Matrigel to the cells so as to be 5.0×10^7 cells/mL. 0.1 mL of the obtained cell suspension was subcutaneously transplanted to the sides of the bodies of six nude mice (CAnN.Cg-Foxn1^nu/CrlCrlj, Charles River Laboratories Japan, Inc.) each of a control group, an E7386 12.5 or 25 mg/kg alone administration group, a lenvatinib mesylate 10 mg/kg alone administration group, and a combined administration group of 12.5 or 25 mg/kg E7386 and 10 mg/kg lenvatinib mesylate. From 13 days after the transplantation, E7386 (12.5 or 25 mg/kg, b.d.s., 14 days, oral administration) and lenvatinib mesylate (10 mg/kg, q.d., 14 days, oral administration) were administered alone or in combination to the alone administration group or the combined administration group. For the administration, E7386 was dissolved in 0.1 mol/L hydrochloric acid, and lenvatinib mesylate was dissolved in 3 mmol/L hydrochloric acid. 0.1 mol/L hydrochloric acid (b.d.s., 14 days) was administered to the control group.
# (§1) When the start day of administration was defined as day 1, the major axis and minor axis of tumor developed in each mouse were then measured at day 4, day 8, day 11, and day 15 by using Digimatic Caliper (Mitutoyo Corp.).
# (§2) The tumor volume and the relative tumor volume (RTV) were calculated according to the following expressions. Tumor volume (mm^3)=Tumor major axis (mm)×Tumor minor axis^2 (mm^2)/2 Relative tumor volume (RTV)=Tumor volume at the measurement day/Tumor volume at the start day of administration
# [2] = test system: human anaplastic thyroid cancer cell line HTC/C3; experiment: Antitumor effect in human anaplastic thyroid cancer cell line HTC/C3 transplantation model, nude mice
# Method: A human anaplastic thyroid cancer cell line HTC/C3 (JCBR Cell Bank) was cultured by using D-MEM High Glucose medium (Wako Pure Chemical Industries, Ltd.) containing 10% FBS in a 5% CO2 incubator under conditions of 37° C. When the cells became an approximately 80% confluent state, the cells were recovered by using trypsin-EDTA. A suspension was prepared by adding Hank's balanced salt solution containing 50% Matrigel to the cells so as to be 1.0×10^7 cells/mL. 0.1 mL of the obtained cell suspension was subcutaneously transplanted to the sides of the bodies of five nude mice (CAnN.Cg-Foxn1^nu/CrlCrlj, Charles River Laboratories Japan, Inc.) each of a control group, an E7386 12.5, 25 or 50 mg/kg alone administration group, a lenvatinib mesylate 10 mg/kg alone administration group, and a combined administration group of 12.5, 25 or 50 mg/kg E7386 and 10 mg/kg lenvatinib mesylate. From 11 days after the transplantation, E7386 (12.5, 25, or 50 mg/kg, b.d.s., 14 days, oral administration) and lenvatinib mesylate (10 mg/kg, q.d., 14 days, oral administration) were administered alone or in combination to the alone administration group or the combined administration group. For the administration, E7386 was dissolved in 0.1 mol/L hydrochloric acid, and lenvatinib mesylate was dissolved in 3 mmol/L hydrochloric acid. 0.1 mol/L hydrochloric acid (b.d.s., 14 days) was administered to the control group.
# as §1, §2
# [3] = test system: Human renal cell carcinoma line A-498 cells; experiment: Antitumor effect in human renal cell carcinoma line A-498 subcutaneous transplantation model, nude mice
# Method: Human renal cell carcinoma line A-498 cells (ATCC) were cultured by using RPMI1640 medium (Wako Pure Chemical Industries, Ltd.) containing 10% FBS in a 5% COz incubator under conditions of 37° C. When the cells became an approximately 100% confluent state, the cells were recovered by using trypsin-EDTA. A suspension was prepared by adding RPMI1640 medium containing 50% Matrigel to the cells so as to be 5.0×10^7 cells/mL. 0.1 mL of the obtained cell suspension was subcutaneously transplanted to the sides of the bodies of six nude mice (CAnN.Cg-Foxn1^nu/CrlCrlj, Charles River Laboratories Japan, Inc.) each of a control group, an E7386 50 mg/kg alone administration group, a lenvatinib mesylate 10 mg/kg alone administration group, and a combined administration group of 50 mg/kg E7386 and 10 mg/kg lenvatinib mesylate. From 27 days alter the transplantation, E7386 (50 mg/kg, q.d., 14 days, oral administration) and lenvatinib mesylate (10 mg/kg, q.d, 14 days, oral administration) were administered alone or in combination to the alone administration group or the combined administration group. For the administration, E7386 was dissolved in 0.1 mol/L hydrochloric acid, and lenvatinib mesylate was dissolved in 3 mmol/L hydrochloric acid. Any drug was not administered to the control group.
# When the start day of administration was defined as day 1, the major axis and minor axis of tumor developed in each mouse were then measured at day 5, day 8, day 12, and day 15 by using Digimatic Caliper (Mitutoyo Corp.).
# as §2
# [4] = test system: Human hepatocellular carcinoma line HepG2 cells; experiment: Tumor vessel suppressive effect (CD31/α-SMA co-staining, MVD and PCI) in human hepatocellular carcinoma HepG2 subcutaneous transplantation model, nude mice; settings: FIG. 22; lenvatinib mesylate 10 mg/kg q.d. alone, 14 days oral; vs control group
# Method: For the administration, E7386 was dissolved in 0.1 mol/L hydrochloric acid, and lenvatinib mesylate was dissolved in 3 mmol/L hydrochloric acid. Any drug was not administered to the control group.
# [5] = Day 4, E7386 12.5 mg/kg b.d.s. oral alone
# [6] = Day 4, E7386 25 mg/kg b.d.s. oral alone
# [7] = Day 8, E7386 12.5 mg/kg b.d.s. oral alone
# [8] = Day 8, E7386 25 mg/kg b.d.s. oral alone
# [9] = Day 11, E7386 12.5 mg/kg b.d.s. oral alone
# [10] = Day 11, E7386 25 mg/kg b.d.s. oral alone
# [11] = Day 15, E7386 12.5 mg/kg b.d.s. oral alone
# [12] = Day 15, E7386 25 mg/kg b.d.s. oral alone
# [13] = Day 4, lenvatinib mesylate 10 mg/kg q.d. oral alone
# [14] = Day 8, lenvatinib mesylate 10 mg/kg q.d. oral alone
# [15] = Day 11, lenvatinib mesylate 10 mg/kg q.d. oral alone
# [16] = Day 15, lenvatinib mesylate 10 mg/kg q.d. oral alone
compound,measurement,setting,value
"C=CCN1CC(=O)N2[C@@H](Cc3ccc(O)cc3F)C(=O)N(Cc3cccc(N4CC(N5CCN(CC)CC5)C4)n3)C[C@@H]2N1C(=O)NCc1ccccc1 [E7386, (6S,9aS)—N-Benzyl-8-({6-[3-(4-ethylpiperazin-1-yl)azetidin-1-yl]pyridin-2-yl}methyl)-6-(2-fluoro-4-hydroxybenzyl)-4,7-dioxo-2-(prop-2-en-1-yl)hexahydro-2H-pyrazino[2,1-c][1,2,4]triazine-1(6H)-carboxamide]","Relative tumor volume (RTV), mean±SD",[1]; [5],1.65 ± 0.22
same,"Relative tumor volume (RTV), mean±SD",[1]; [6],1.56 ± 0.21
same,"Relative tumor volume (RTV), mean±SD",[1]; [7],3.02 ± 0.31
same,"Relative tumor volume (RTV), mean±SD",[1]; [8],2.94 ± 0.22
same,"Relative tumor volume (RTV), mean±SD",[1]; [9],4.19 ± 0.80
same,"Relative tumor volume (RTV), mean±SD",[1]; [10],4.35 ± 0.36
same,"Relative tumor volume (RTV), mean±SD",[1]; [11],5.53 ± 1.21
same,"Relative tumor volume (RTV), mean±SD",[1]; [12],5.90 ± 1.34
same,"Relative tumor volume (RTV), mean±SD",[2]; [5],1.68 ± 0.13
same,"Relative tumor volume (RTV), mean±SD",[2]; [6],1.72 ± 0.10
same,"Relative tumor volume (RTV), mean±SD","[2]; Day 4, E7386 50 mg/kg b.d.s. oral alone",1.74 ± 0.09
same,"Relative tumor volume (RTV), mean±SD",[2]; [7],4.02 ± 0.40
same,"Relative tumor volume (RTV), mean±SD",[2]; [8],3.99 ± 0.62
same,"Relative tumor volume (RTV), mean±SD","[2]; Day 8, E7386 50 mg/kg b.d.s. oral alone",4.00 ± 0.66
same,"Relative tumor volume (RTV), mean±SD",[2]; [9],6.27 ± 0.93
same,"Relative tumor volume (RTV), mean±SD",[2]; [10],6.44 ± 1.09
same,"Relative tumor volume (RTV), mean±SD","[2]; Day 11, E7386 50 mg/kg b.d.s. oral alone",5.85 ± 1.42
same,"Relative tumor volume (RTV), mean±SD",[2]; [11],8.58 ± 2.48
same,"Relative tumor volume (RTV), mean±SD",[2]; [12],8.81 ± 2.14
same,"Relative tumor volume (RTV), mean±SD","[2]; Day 15, E7386 50 mg/kg b.d.s. oral alone",7.83 ± 2.28
same,"Relative tumor volume (RTV), mean±SD","[3]; Day 5, E7386 50 mg/kg q.d. oral alone",1.33 ± 0.24
same,"Relative tumor volume (RTV), mean±SD","[3]; Day 8, E7386 50 mg/kg q.d. oral alone",1.70 ± 0.26
same,"Relative tumor volume (RTV), mean±SD","[3]; Day 12, E7386 50 mg/kg q.d. oral alone",2.04 ± 0.29
same,"Relative tumor volume (RTV), mean±SD","[3]; Day 15, E7386 50 mg/kg q.d. oral alone",2.29 ± 0.33
"COc1cc2nccc(Oc3ccc(NC(=O)NC4CC4)c(Cl)c3)c2cc1C(N)=O [Lenvatinib mesylate, 4-(3-chloro-4-(cyclopropylaminocarbonyl)aminophenoxy)-7-methoxy-6-quinolinecarboxamide, reference compound]","Relative tumor volume (RTV), mean±SD",[1]; [13],1.60 ± 0.22
same,"Relative tumor volume (RTV), mean±SD",[1]; [14],2.66 ± 0.46
same,"Relative tumor volume (RTV), mean±SD",[1]; [15],3.81 ± 0.80
same,"Relative tumor volume (RTV), mean±SD",[1]; [16],4.67 ± 1.19
same,"Relative tumor volume (RTV), mean±SD",[2]; [13],1.71 ± 0.10
same,"Relative tumor volume (RTV), mean±SD",[2]; [14],3.57 ± 0.54
same,"Relative tumor volume (RTV), mean±SD",[2]; [15],5.15 ± 1.07
same,"Relative tumor volume (RTV), mean±SD",[2]; [16],6.23 ± 1.71
same,"Relative tumor volume (RTV), mean±SD","[3]; Day 5, lenvatinib mesylate 10 mg/kg q.d. oral alone",1.08 ± 0.18
same,"Relative tumor volume (RTV), mean±SD",[3]; [14],1.35 ± 0.25
same,"Relative tumor volume (RTV), mean±SD","[3]; Day 12, lenvatinib mesylate 10 mg/kg q.d. oral alone",1.21 ± 0.18
same,"Relative tumor volume (RTV), mean±SD",[3]; [16],1.20 ± 0.21
same,PCI (pericyte coverage index) (in words),[4],markedly increased; also recorded: statistically significantly increased pericyte coverage as compared with the control group

# Reference: US12303505B2, “Tumor-treating pharmaceutical composition” (Eisai R&D Management Co., Ltd., priority 2017, dated 2025)
